Reference: patent US20230365592A1 (Agios Pharmaceuticals, Inc., priority 2022, published 2023)

The compounds below were run against T1, human PAH with the R408W mutation (Homo sapiens, UniProt P00439, R408W) (assay: Cell Based Phenylalanine Flux Assay). Settings: A375 cells expressing human R408W PAH; 24 hrs compound incubation; 13C-Tyrosine by LC-MS; average where tested multiple times; read-out: AC50.
T1 construct: expressed in transfected cells
T1 sequence (P00439 1-452 R408W): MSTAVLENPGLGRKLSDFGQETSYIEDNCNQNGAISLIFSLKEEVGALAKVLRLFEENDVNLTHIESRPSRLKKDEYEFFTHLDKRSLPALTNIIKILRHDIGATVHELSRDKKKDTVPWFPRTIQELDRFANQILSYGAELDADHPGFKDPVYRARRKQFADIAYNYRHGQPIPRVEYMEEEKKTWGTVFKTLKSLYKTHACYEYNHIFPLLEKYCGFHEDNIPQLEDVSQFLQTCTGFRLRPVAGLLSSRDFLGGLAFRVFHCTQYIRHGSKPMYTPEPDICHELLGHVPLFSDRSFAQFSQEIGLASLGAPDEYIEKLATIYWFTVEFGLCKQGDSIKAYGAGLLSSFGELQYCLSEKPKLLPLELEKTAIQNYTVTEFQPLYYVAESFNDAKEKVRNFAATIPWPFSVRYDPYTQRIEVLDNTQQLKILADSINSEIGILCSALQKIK
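Note: after compound treatment, cells received sepiapterin plus isotope-labelled Phenylalanine for 4 hours, then labelled Tyrosine in the medium was quantified, 10-point 2-fold dilution series run in duplicate.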

| SMILES | AC50 |
| --- | --- |
| Cc1cccn2nc([C@@H]3c4nc[nH]c4CCN3C(=O)c3nnc(C4(C)CC4)o3)cc12 [Example 1323, (S)-(5-(1-methylcyclopropyl)-1,3,4-oxadiazol-2-yl)(4-(4-methylpyrazolo[1,5-a]pyridin-2-yl)-6,7-dihydro-1H-imidazo[4,5-c]pyridin-5(4H)-yl)methanone] | < 500 nM |
| CC1(c2nnc(C(=O)N3CCc4[nH]cnc4[C@@H]3c3cc4c(C(F)(F)F)cccn4n3)o2)CC1 [Example 1324, (R)-(5-(1-methylcyclopropyl)-1,3,4-oxadiazol-2-yl)(4-(4-(trifluoromethyl)pyrazolo[1,5-a]pyridin-2-yl)-6,7-dihydro-1H-imidazo[4,5-c]pyridin-5(4H)-yl)methanone] | 1000 to 5000 nM |
| CC1(c2nnc(C(=O)N3CCc4[nH]cnc4[C@H]3c3cc4c(C(F)(F)F)cccn4n3)o2)CC1 [Example 1325, (S)-(5-(1-methylcyclopropyl)-1,3,4-oxadiazol-2-yl)(4-(4-(trifluoromethyl)pyrazolo[1,5-a]pyridin-2-yl)-6,7-dihydro-1H-imidazo[4,5-c]pyridin-5(4H)-yl)methanone] | < 500 nM |
| Cc1ncccc1-c1nnc(C(=O)N2CCc3[nH]cnc3[C@H]2c2cc3c(F)cccn3n2)o1 [Example 1328, (S)-(4-(4-fluoropyrazolo[1,5-a]pyridin-2-yl)-6,7-dihydro-1H-imidazo[4,5-c]pyridin-5(4H)-yl)(5-(2-methylpyridin-3-yl)-1,3,4-oxadiazol-2-yl)methanone] | < 500 nM |
| Cc1ncccc1-c1nnc(C(=O)N2CCc3[nH]cnc3[C@H]2c2cc3c(C)cccn3n2)o1 [Example 1330, (S)-(4-(4-methylpyrazolo[1,5-a]pyridin-2-yl)-6,7-dihydro-1H-imidazo[4,5-c]pyridin-5(4H)-yl)(5-(2-methylpyridin-3-yl)-1,3,4-oxadiazol-2-yl)methanone] | < 500 nM |
| Cc1ncccc1-c1nnc(C(=O)N2CCc3[nH]cnc3[C@@H]2c2cc3c(C)cccn3n2)o1 [Example 1331, (R)-(4-(4-methylpyrazolo[1,5-a]pyridin-2-yl)-6,7-dihydro-1H-imidazo[4,5-c]pyridin-5(4H)-yl)(5-(2-methylpyridin-3-yl)-1,3,4-oxadiazol-2-yl)methanone] | 1000 to 5000 nM |
| Cc1ncccc1-c1nnc(C(=O)N2CCc3[nH]cnc3[C@H]2c2cc3cccc(Cl)n3n2)o1 [Example 1334, (S)-(4-(7-chloropyrazolo[1,5-a]pyridin-2-yl)-6,7-dihydro-1H-imidazo[4,5-c]pyridin-5(4H)-yl)(5-(2-methylpyridin-3-yl)-1,3,4-oxadiazol-2-yl)methanone] | < 500 nM |
| Cc1ncccc1-c1nnc(C(=O)N2CCc3[nH]cnc3[C@@H]2c2cc3cccc(Cl)n3n2)o1 [Example 1335, (R)-(4-(7-chloropyrazolo[1,5-a]pyridin-2-yl)-6,7-dihydro-1H-imidazo[4,5-c]pyridin-5(4H)-yl)(5-(2-methylpyridin-3-yl)-1,3,4-oxadiazol-2-yl)methanone] | > 5000 nM |
| Cc1cccc2cc([C@H]3c4nc[nH]c4CCN3C(=O)c3nnc(-c4ncccn4)o3)nn12 [Example 1336, (R)-(4-(7-methylpyrazolo[1,5-a]pyridin-2-yl)-6,7-dihydro-1H-imidazo[4,5-c]pyridin-5(4H)-yl)(5-(pyrimidin-2-yl)-1,3,4-oxadiazol-2-yl)methanone] | 1000 to 5000 nM |
| Cc1cccc2cc([C@@H]3c4nc[nH]c4CCN3C(=O)c3nnc(-c4ncccn4)o3)nn12 [Example 1337, (S)-(4-(7-methylpyrazolo[1,5-a]pyridin-2-yl)-6,7-dihydro-1H-imidazo[4,5-c]pyridin-5(4H)-yl)(5-(pyrimidin-2-yl)-1,3,4-oxadiazol-2-yl)methanone] | 500 to 1000 nM |
| Cc1cccc2cc([C@H]3c4nc[nH]c4CCN3C(=O)c3nnc(-c4cnccn4)o3)nn12 [Example 1338, (R)-(4-(7-methylpyrazolo[1,5-a]pyridin-2-yl)-6,7-dihydro-1H-imidazo[4,5-c]pyridin-5(4H)-yl)(5-(pyrazin-2-yl)-1,3,4-oxadiazol-2-yl)methanone] | > 5000 nM |
| Cc1cccc2cc([C@@H]3c4nc[nH]c4CCN3C(=O)c3nnc(-c4cnccn4)o3)nn12 [Example 1339, (S)-(4-(7-methylpyrazolo[1,5-a]pyridin-2-yl)-6,7-dihydro-1H-imidazo[4,5-c]pyridin-5(4H)-yl)(5-(pyrazin-2-yl)-1,3,4-oxadiazol-2-yl)methanone] | < 500 nM |
| Cc1ncccc1-c1nnc(C(=O)N2CCc3[nH]cnc3[C@H]2c2cc3cccc(C(F)(F)F)n3n2)o1 [Example 1342, (S)-(5-(2-methylpyridin-3-yl)-1,3,4-oxadiazol-2-yl)(4-(7-(trifluoromethyl)pyrazolo[1,5-a]pyridin-2-yl)-6,7-dihydro-1H-imidazo[4,5-c]pyridin-5(4H)-yl)methanone] | 500 to 1000 nM |
| Cc1ncccc1-c1nnc(C(=O)N2CCc3[nH]cnc3[C@@H]2c2cc3cccc(C(F)(F)F)n3n2)o1 [Example 1343, (R)-(5-(2-methylpyridin-3-yl)-1,3,4-oxadiazol-2-yl)(4-(7-(trifluoromethyl)pyrazolo[1,5-a]pyridin-2-yl)-6,7-dihydro-1H-imidazo[4,5-c]pyridin-5(4H)-yl)methanone] | 1000 to 5000 nM |
| COc1ccc(-c2nnc(C(=O)N3CCc4[nH]cnc4[C@H]3c3cc4cccc(C(F)(F)F)n4n3)o2)cn1 [Example 1344, (S)-(5-(6-methoxypyridin-3-yl)-1,3,4-oxadiazol-2-yl)(4-(7-(trifluoromethyl)pyrazolo[1,5-a]pyridin-2-yl)-6,7-dihydro-1H-imidazo[4,5-c]pyridin-5(4H)-yl)methanone] | 1000 to 5000 nM |
| COc1ccc(-c2nnc(C(=O)N3CCc4[nH]cnc4[C@@H]3c3cc4cccc(C(F)(F)F)n4n3)o2)cn1 [Example 1345, (R)-(5-(6-methoxypyridin-3-yl)-1,3,4-oxadiazol-2-yl)(4-(7-(trifluoromethyl)pyrazolo[1,5-a]pyridin-2-yl)-6,7-dihydro-1H-imidazo[4,5-c]pyridin-5(4H)-yl)methanone] | 1000 to 5000 nM |
| O=C(c1nnc(-c2cccnc2)o1)N1CCc2[nH]cnc2[C@@H]1c1cc2ccccn2n1 [Example 1347, (R)-(4-(pyrazolo[1,5-a]pyridin-2-yl)-6,7-dihydro-1H-imidazo[4,5-c]pyridin-5(4H)-yl)(5-(pyridin-3-yl)-1,3,4-oxadiazol-2-yl)methanone] | 1000 to 5000 nM |
| Cc1c(-c2nnc(C(=O)N3CCc4[nH]cnc4[C@H]3c3cc4c(C(F)F)cccn4n3)o2)cnn1C [Example 1348, (S)-(4-(4-(difluoromethyl)pyrazolo[1,5-a]pyridin-2-yl)-6,7-dihydro-1H-imidazo[4,5-c]pyridin-5(4H)-yl)(5-(1,5-dimethyl-1H-pyrazol-4-yl)-1,3,4-oxadiazol-2-yl)methanone] | < 500 nM |
| CC(C)(F)c1nnc(C(=O)N2CCc3[nH]cnc3[C@@H]2c2cc3c(C(F)F)cccn3n2)o1 [Example 1351, (R)-(4-(4-(difluoromethyl)pyrazolo[1,5-a]pyridin-2-yl)-6,7-dihydro-1H-imidazo[4,5-c]pyridin-5(4H)-yl)(5-(2-fluoropropan-2-yl)-1,3,4-oxadiazol-2-yl)methanone] | > 5000 nM |
| Cn1ccc(-c2nnc(C(=O)N3CCc4[nH]cnc4[C@H]3c3cc4c(C(F)F)cccn4n3)o2)n1 [Example 1352, (S)-(4-(4-(difluoromethyl)pyrazolo[1,5-a]pyridin-2-yl)-6,7-dihydro-1H-imidazo[4,5-c]pyridin-5(4H)-yl)(5-(1-methyl-1H-pyrazol-3-yl)-1,3,4-oxadiazol-2-yl)methanone] | < 500 nM |
| CC1(c2nnc(C(=O)N3CCc4[nH]cnc4[C@H]3c3cc4cccc(C(F)(F)F)n4n3)o2)CC1 [Example 1354, (S)-(5-(1-methylcyclopropyl)-1,3,4-oxadiazol-2-yl)(4-(7-(trifluoromethyl)pyrazolo[1,5-a]pyridin-2-yl)-6,7-dihydro-1H-imidazo[4,5-c]pyridin-5(4H)-yl)methanone] | 500 to 1000 nM |
| CC1(c2nnc(C(=O)N3CCc4[nH]cnc4[C@@H]3c3cc4cccc(C(F)(F)F)n4n3)o2)CC1 [Example 1355, (R)-(5-(1-methylcyclopropyl)-1,3,4-oxadiazol-2-yl)(4-(7-(trifluoromethyl)pyrazolo[1,5-a]pyridin-2-yl)-6,7-dihydro-1H-imidazo[4,5-c]pyridin-5(4H)-yl)methanone] | 1000 to 5000 nM |
| Cc1ncccc1-c1nnc(C(=O)N2CCc3[nH]cnc3[C@H]2c2cc3cccc(C)n3n2)o1 [Example 1358, (S)-(4-(7-methylpyrazolo[1,5-a]pyridin-2-yl)-6,7-dihydro-1H-imidazo[4,5-c]pyridin-5(4H)-yl)(5-(2-methylpyridin-3-yl)-1,3,4-oxadiazol-2-yl)methanone] | < 500 nM |
| Cc1ncccc1-c1nnc(C(=O)N2CCc3[nH]cnc3[C@@H]2c2cc3cccc(C)n3n2)o1 [Example 1359, (R)-(4-(7-methylpyrazolo[1,5-a]pyridin-2-yl)-6,7-dihydro-1H-imidazo[4,5-c]pyridin-5(4H)-yl)(5-(2-methylpyridin-3-yl)-1,3,4-oxadiazol-2-yl)methanone] | 1000 to 5000 nM |
| O=C(c1nnc(-c2cnccn2)o1)N1CCc2[nH]cnc2[C@@H]1c1cc2cccc(C(F)(F)F)n2n1 [Example 1360, (R)-(5-(pyrazin-2-yl)-1,3,4-oxadiazol-2-yl)(4-(7-(trifluoromethyl)pyrazolo[1,5-a]pyridin-2-yl)-6,7-dihydro-1H-imidazo[4,5-c]pyridin-5(4H)-yl)methanone] | > 5000 nM |
